The record followed here is patent publication US10759783B2, “Biaryl inhibitors of Bruton'S tyrosine kinase” (BIOGEN MA INC., priority 2013, dated 2020).

The target in assay [1] is BTK (phospho-BTK) in human whole blood (Homo sapiens, UniProt Q06187). In words: In vitro PD assay in human whole blood (pBTK assay).
Assay [2] addresses T1, BTK enzyme (Homo sapiens, UniProt Q06187).
T1 construct: purchased Upstate 14-552
The experiment in a line: In vitro BTK kinase assay: BTK-POLYGAT-LS assay. The format is biochemical. The following applies: ATP 10 μM, read-out: IC50 (10uMATP). The procedure, abridged:
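Human BTK activity was measured with final 10 μM ATP and 100 nM polyGAT substrate in pH 7.5 Tris buffer with 10 mM MgCl2, DTT, Triton X-100 and casein.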

BTK (phospho-BTK) in human whole blood, sequence (Q06187 whole entry): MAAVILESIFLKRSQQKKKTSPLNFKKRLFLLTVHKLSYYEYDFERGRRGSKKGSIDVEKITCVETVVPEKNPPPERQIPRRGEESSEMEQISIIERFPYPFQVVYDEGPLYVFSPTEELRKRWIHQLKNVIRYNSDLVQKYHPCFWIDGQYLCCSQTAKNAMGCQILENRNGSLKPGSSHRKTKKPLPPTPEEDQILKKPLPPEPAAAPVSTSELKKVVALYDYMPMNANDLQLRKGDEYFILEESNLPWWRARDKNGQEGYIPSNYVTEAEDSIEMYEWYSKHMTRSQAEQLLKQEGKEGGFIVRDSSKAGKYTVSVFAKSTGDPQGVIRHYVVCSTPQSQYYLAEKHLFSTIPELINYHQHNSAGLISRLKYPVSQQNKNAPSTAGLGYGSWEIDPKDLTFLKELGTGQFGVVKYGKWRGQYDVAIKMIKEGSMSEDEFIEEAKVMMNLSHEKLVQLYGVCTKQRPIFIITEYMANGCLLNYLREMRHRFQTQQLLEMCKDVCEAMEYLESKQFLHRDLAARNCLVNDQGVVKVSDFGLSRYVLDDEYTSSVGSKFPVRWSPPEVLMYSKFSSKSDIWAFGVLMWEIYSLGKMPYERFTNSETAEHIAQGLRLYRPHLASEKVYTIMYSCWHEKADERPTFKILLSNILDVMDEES
T1 sequence (Q06187 whole entry): as above

As usually defined, the IC50 is the concentration that gives 50% inhibition. With `Cc1cc(-c2cc(Nc3cc4n(n3)CCCN(CCO)C4)ncn2)ccc1CNC(=O)N1CC(OC(C)C)C1` [Example I-274, N-[[4-[6-[[5-(2-hydroxyethyl)-4,6,7,8-tetrahydropyrazolo[1,5-a][1,4]diazepin-2-yl]amino]pyrimidin-4-yl]-2-methyl-phenyl]methyl]-3-isopropoxy-azetidine-1-carboxamide], the figures for the IC50 in assay [1] and in assay [2] were < 500 nM and < 10 nM, respectively.
`COCCc1cc(-c2ccnc(Nc3cnn(C)c3)n2)ccc1CNC(=O)N1CC(OC(C)(C)C)C1` [Example I-319, 3-tert-butoxy-N-[[2-(2-methoxyethyl)-4-[2-[(1-methylpyrazol-4-yl)amino]pyrimidin-4-yl]phenyl]methyl]azetidine-1-carboxamide]: the values for the IC50 in assay [1] and in assay [2] were < 500 nM and < 10 nM, respectively.
In the same order, the values of `Cn1cc(Nc2nccc(-c3ccc(CNC(=O)N4CCC(C(C)(C)C)C4)c(C#N)c3)n2)cn1` (centres unmarked) [Example I-210, 3-(tert-butyl)-N-(2-cyano-4-(2-((1-methyl-1H-pyrazol-4-yl)amino)pyrimidin-4-yl)benzyl)pyrrolidine-1-carboxamide] are < 500 nM and < 10 nM.
As for `Cc1cc(-c2cc(Nc3cc4n(n3)CCNC4)ncn2)ccc1CNC(=O)N1CC(OC(C)C)C1` [Example I-272, 3-isopropoxy-N-[[2-methyl-4-[6-(4,5,6,7-tetrahydropyrazolo[1,5-a]pyrazin-2-ylamino)pyrimidin-4-yl]phenyl]methyl]azetidine-1-carboxamide], the results for the IC50 in assay [1] and in assay [2] were < 500 nM and < 10 nM, respectively.
For the compound `CC(C)(C)C1CCN(C(=O)NCc2ccc(-c3ccnc(Nc4cnn(C5CC5)c4)n3)cc2C(F)(F)F)C1` (centres unmarked) [Example I-296, 3-tert-butyl-N-[[4-[2-[(1-cyclopropylpyrazol-4-yl)amino]pyrimidin-4-yl]-2-(trifluoromethyl)phenyl]methyl]pyrrolidine-1-carboxamide], the values for the IC50 in assay [1] and in assay [2] were < 500 nM and < 10 nM, respectively.
Take `Cc1cc(-c2ccnc(Nc3cnn(C4CCN(C)CC4)c3)n2)ccc1CNC(=O)c1cnn(C(C)(C)C)c1` [Example I-197, 1-(tert-butyl)-N-(2-methyl-4-(2-((1-(1-methylpiperidin-4-yl)-1H-pyrazol-4-yl)amino)pyrimidin-4-yl)benzyl)-1H-pyrazole-4-carboxamide]: the values for the IC50 in assay [1] and in assay [2] were < 500 nM and < 10 nM, respectively.
On to `Cc1c(Nc2nccc(-c3ccc(CNC(=O)N4CCC(C(C)(C)C)C4)c(CCO)c3)n2)cnn1C` (centres unmarked) [Example I-321, 3-tert-butyl-N-[[4-[2-[(1,5-dimethylpyrazol-4-yl)amino]pyrimidin-4-yl]-2-(2-hydroxyethyl)phenyl]methyl]pyrrolidine-1-carboxamide], for which the IC50 was < 500 nM in assay [1] and < 10 nM in assay [2].
Take `CN1CCn2nc(Nc3cc(-c4ccc(CNC(=O)c5cnn(C(C)(C)C)c5)c(Cl)c4)ncn3)cc2C1` [Example I-240, 1-(tert-butyl)-N-(2-chloro-4-(6-((5-methyl-4,5,6,7-tetrahydropyrazolo[1,5-a]-pyrazin-2-yl)amino)pyrimidin-4-yl)benzyl)-1H-pyrazole-4-carboxamide]: the figures for the IC50 in assay [1] and in assay [2] were < 500 nM and < 10 nM, respectively.
In the case of `CC(C)(C)C1CCN(C(=O)NCc2ccc(-c3ccnc(Nc4cnn5c4CCC5)n3)cc2CCO)C1` (centres unmarked) [Example I-324, 3-tert-butyl-N-[[4-[2-(5,6-dihydro-4H-pyrrolo[1,2-b]pyrazol-3-ylamino)pyrimidin-4-yl]-2-(2-hydroxyethyl)phenyl]methyl]pyrrolidine-1-carboxamide], the IC50 in assay [1] was < 500 nM; in assay [2], < 10 nM.
Take `CC(C)(C)OC1CN(C(=O)NC2CCCCc3cc(-c4ccnc(Nc5cnn([C@H]6CCOC6)c5)n4)ccc32)C1` (stereo partly drawn) [Example I-334, 3-tert-butoxy-N-[2-[2-[[1-[(3S)-tetrahydrofuran-3-yl]pyrazol-4-yl]amino]pyrimidin-4-yl]-6,7,8,9-tetrahydro-5H-benzo[7]annulen-5-yl]azetidine-1-carboxamide]: the values for the IC50 in assay [1] and in assay [2] were < 500 nM and < 10 nM, respectively.
